The values below come from ChEMBL document CHEMBL1821646, “Design and synthesis of a biotinylated probe of COX-2 inhibitor nimesulide analog JCC76” (Bioorg Med Chem Lett, 2011).

pIC50: −log10 of the molar value.

The test system of the first series is SK-BR-3. Kind of series: Antiproliferative activity against human SKBR3 cells at 100 uM after 48 to 72 hrs by MTT assay. The series is classed as cell-based. The note with it: sk-br-3, 100 µM.
On to `O=C(O)CCCC[C@@H]1SC[C@@H]2NC(=O)N[C@@H]21` [BIOTIN], for which the Activity result is recorded as “Non-toxic”.

Another series has as its system SK-BR-3. Kind of series: Antiproliferative activity against human SKBR3 cells after 48 to 72 hrs by MTT assay. In kind it is functional, cell-based.
Details: not given
For the molecule `Cc1ccc(C)c(COc2cc(NC(=O)C3CCCCC3)ccc2NS(C)(=O)=O)c1`, the pIC50 (commonly the negative decadic logarithm of the IC50, by convention in mol/L) is 4.08.

Molecule `CCCCCCN(c1ccc(NC(=O)C2CCCCC2)cc1OCc1cc(C)ccc1C)S(C)(=O)=O` had a negative-log IC50 (pIC50) of 4.09.

For the molecule `COCCOCCN(c1ccc(NC(=O)C2CCCCC2)cc1OCc1cc(C)ccc1C)S(C)(=O)=O`, the negative-log IC50 (pIC50) is 4.89.

`CCCCCC(=O)NCCCCCCN(c1ccc(NC(=O)C2CCCCC2)cc1OCc1cc(C)ccc1C)S(C)(=O)=O`: the pIC50 was 5.22.

Take `Cc1ccc(C)c(COc2cc(NC(=O)C3CCCCC3)ccc2N(CCCCCCNC(=O)c2ccc3ccccc3c2)S(C)(=O)=O)c1`: the pIC50 is 4.34.

`Cc1ccc(C)c(COc2cc(NC(=O)C3CCCCC3)ccc2N(CCCCCCNC(=O)CCCC[C@H]2SC[C@H]3NC(=O)N[C@H]32)S(C)(=O)=O)c1` showed a pIC50 of 5.66.
